# Tested on: in vitro rat hearts
# Test: Isolated perfused (Langendorff) rat heart, 25 min global ischemia and 180 min reperfusion: hemodynamics, infarct size, recovery of LVDP
# Details: for Effect on the cardioprotective effect of Tpo (infarct size, LVDP recovery): Glibenclamide 3 μM 15 min alone, then with Tpo 1.0 ng/ml 15 min prior to ischemia; for Effect on cardioprotection, drug alone: no Tpo
# Experimental: The study was directed to determining whether Tpo (0.01-10.0 ng/ml) confers immediate cardioprotection in rat hearts and the contribution of potassium channels to the underlying mechanism. Hearts from normoxic 8 week old Sprague Dawley rats (n=8/group) were isolated and perfused in the Langendorff mode. Hemodynamic function was recorded under steady-state conditions prior to 25 minutes global no flow ischemia and 180 minutes reperfusion.
# Isolated heart perfusion. Isolated rat hearts were perfused with bicarbonate buffer at constant pressure in a retrograde manner and instrumented as described in Baker, et al., Am. J. Physiol. Heart Circulat. Physiol. 278:1395-1400, 2000 potassium channel blockers were added to this perfusate as needed. A 3-way tap, located immediately above the site of cannulation, allowed the entire perfusate to be diverted away from the heart to produce global, no-flow ischemia. Reperfusion was achieved by repositioning of the tap to allow perfusate to be delivered to the heart. Left ventricular function was monitored continuously throughout each experiment as described in Baker, et al., supra, 2000. End-diastolic pressure was initially set to 3 mmHg for 2 minutes. The balloon was then progressively inflated with a microsyringe to set end-diastolic pressures to 8 mmHg for the left ventricle, with developed pressure and heart rate recorded during steady-state conditions. Coronary flow rate was measured throughout the experiment by timed collections of the coronary effluent from the right side of the heart into a graduated cylinder. Coronary flow rate was expressed as milliliters per minute per gram wet weight.
# Resistance to myocardial ischemia. Hearts from adult rats were perfused with bicarbonate buffer, and biventricular function was monitored continuously throughout each experiment as described in Baker, et al., supra, 2000. For concentration response studies, hearts were then perfused with Tpo (0.01-10.0 ng/ml) for 15 minutes prior to 25 minutes ischemia and 180 minutes reperfusion. For mechanism studies with potassium channel blockers, hearts were perfused with drugs for 15 minutes alone followed by 15 minutes in combination with Tpo prior to ischemia. Hearts perfused with potassium channel blockers alone in the absence of Tpo for 30 minutes prior to ischemia served as untreated controls for these studies. Recovery of post-ischemic left ventricular developed pressure was expressed as a percentage of its pre-drug, pre-ischemic value.
# Assessment of ventricular function. Left ventricular function was monitored continuously throughout each experiment as described in Baker, et al., supra, 2000. Recovery of left ventricular pressure following ischemia was used to assess resistance to ischemia.
# Measurement of infarct size/area at risk at 3 hours reperfusion were used to assess resistance to myocardial ischemia. For characterization of infarction size, hearts were perfused with 10 ml bicarbonate buffer containing triphenyltetrazolium chloride (SIGMA) at 37° C.
# The heart was sectioned in 2 mm segments from apex to atrio-ventricular groove in a transverse fashion. Each segment was recorded and placed in formalin. After twenty-four (24) hours, the specimen was digitally photographed in a camera mount to normalize specimen-to-lens distance. Each photograph was then appended to Adobe Photoshop (Adobe™) to measure pixel density of infarcted versus non-infarcted areas. The percentage of infarction of each slide was expressed as a percentage of the entire area of the heart.
# Hearts from male Sprague Dawley rats at 8 weeks of age were isolated and perfused with Tpo at 0.01, 0.1, 1.0, and 10 ng/ml for 15 minutes prior to 25 minutes global ischemia and 180 minutes reperfusion (FIG. 2). Tpo (1.0 ng/ml) reduced coronary flow rate prior to ischemia from 6±1 ml/min/g to 5±1 ml/min/g, increased left ventricular developed pressure from 119±15 mmHg to 151±19 mmHg and decreased heart rate from 240±34 beats/minute to 228±17 beats/minute. […]
compound,measurement,setting,value
"COc1ccc(Cl)cc1C(=O)NCCc1ccc(S(=O)(=O)NC(=O)NC2CCCCC2)cc1 [Glibenclamide, reference compound]","Effect on the cardioprotective effect of Tpo (infarct size, LVDP recovery)",,completely abolished
same,"Effect on the cardioprotective effect of Tpo (infarct size, LVDP recovery)",listed as glibenclamide,completely prevented
same,"Effect on cardioprotection, drug alone",Glibenclamide 3 μM alone,no effect
"COC[C@H]1OC(=O)c2coc3c2[C@@]1(C)C1=C(C3=O)[C@@H]2CCC(=O)[C@@]2(C)C[C@H]1OC(C)=O [Wortmannin, reference compound]","Effect on cardioprotection, drug alone",Wortmannin 100 nM alone,no effect

# Reference: US8518883B2, “Method of reducing deleterious effects of ischemia by administration of a thrombopoietin receptor ligand” (MCW Research Foundation, Inc., priority 2006, dated 2013)
